Patent US20040076974A1, “Liver necrosis predictive genes” (priority 2002, published 2004)
Where “and” joins values, the source holds several entries; their conditions need not be identical. Equal entries are not always repeated. Where two headings read alike, the source gives them in different places.

Columns and labels:
Sprague Dawley rats = settings: rat, in vivo, ip; for Score (histopathology liver necrosis severity score): Sprague Dawley, 72 h
Method in brief: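 Toxicity calls (necrosis present or absent at 72 h) and histopathology scores were correlated with tissue gene expression from Crl:CD Sprague Dawley rats. Animals, usually 3 treated with compound by i.p. route and 3 given vehicle, were killed at 6, 24 or 72 h and tissues frozen immediately in liquid nitrogen.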

[1] = system: toxicologically relevant rat genes (rat CT array); settings: rat, in vivo

## CC/C(=C(\c1ccccc1)c1ccc(OCCN(C)C)cc1)c1ccccc1 [tamoxifen]
Sprague Dawley rats; 50 mg/kg
  Score (histopathology liver necrosis severity score): 1
  Liver Necrosis: no
Sprague Dawley rats; 200 mg/kg
  Score (histopathology liver necrosis severity score): 1
  Liver Necrosis: no
[1]
  14-3-3 zeta expression: 1.06 and 1.114 and 1.024 and 1.069 and 1.078
  60S ribosomal protein L6 expression: 1.136 and 1.258 and 1.391 (2×) and 1.1
  Adenine nucleotide translocator 1 expression: 0.8038 and 0.8428 and 1.025 and 0.963 and 1.349
  Alpha-1 microglobulin/bikunin precursor (Ambp) expression: 1.137 and 1.13 and 1.288 and 1.072 and 1.505
  Alpha-tubulin expression: 0.9413 and 0.9605 and 0.9619 and 0.9049 and 1.355
  Aquaporin-3 (AQP3) expression: 0.9813 and 0.7741 and 0.9894 and 0.9996 and 0.8864
  Beta-actin expression: 0.7738 and 0.942 and 0.6998 and 1.204
  Beta-actin, sequence 2 expression: 0.7894 and 1.034 and 1.023 and 0.5893
  Beta-tubulin, class I expression: 0.7904 and 0.7769 and 1.118 and 1.041 and 1.416
  Biliverdin reductase expression: 1.244 and 1.177 and 0.9432 and 0.9712
  CDK108 expression: 0.7646 and 0.771 and 0.9296 and 1.067 and 0.6341
  Calpactin I heavy chain expression: 1.24 and 0.9779 and 0.9969 and 0.9558 and 1.503
  Calpain 2 expression: 1.074 and 1.028 and 1.069
  Cathepsin B expression: 1.062 and 1.634 and 1.119 and 0.9643 and 1.263
  Cathepsin L, sequence 2 expression: 0.793 and 1.456 and 0.963 and 0.9594
  Cathepsin S expression: 0.8837 and 1.721 and 1.401
  Cyclin D1 expression: 0.9348 and 0.6137 and 1.116 and 1.1 and 0.745
  Cystatin C expression: 0.7987 and 0.8206 and 1.149 and 1.058 and 1.138
  Dynamin-1 (D100) expression: 0.974 and 0.8723 and 0.9822 and 1.024 and 0.9733
  Elongation factor-1 alpha expression: 1.144 and 1.188 and 1.098 and 0.9078 and 1.206
  Equilbrative nitrobenzylthioinosine-sensitive nucleoside transporter expression: 1.073 and 0.9454 and 0.9032 and 1.004 and 0.9505
  F1-ATPase beta subunit expression: 0.7234 and 0.6975 and 0.9473 and 0.9602 and 1.189
  Gamma-actin, cytoplasmic expression: 0.982 and 0.9804 and 1.031 and 1.54
  Glutathione S-transferase theta-1 expression: 0.8059 and 0.9415 and 0.8757 and 1.133
  High affinity IgE receptor gamma chain (FcERIgamma) expression: 0.9724 and 1.018 and 1.021 and 1.327
  Hypoxanthine-guanine phosphoribosyltransferase expression: 0.7468 and 0.8598 and 0.8651 and 0.806 and 0.9251
  IgE binding protein expression: 1.306 and 1.678 and 1.071 and 1.114 and 1.302
  JNK1 stress activated protein kinase expression: 0.666 and 0.9165 and 0.9272 and 0.962 and 0.7174
  Melanoma-associated antigen ME491 expression: 1.025 and 1.238 and 1.062 and 1.098 and 1.559
  Multidrug resistant protein-1 expression: 1.082 and 1.58 and 1.118 and 1.184 and 0.9501
  Multidrug resistant protein-2 expression: 0.8809 and 1.298 and 1.165 and 1.156 and 0.7835
  N-hydroxy-2-acetylaminofluorene sulfotransferase (ST1C1) expression: 1.02 and 0.9797 and 0.9522 and 1.016
  NADP-dependent isocitrate dehydrogenase, cytosolic expression: 0.865 and 1.545
  NIPK expression: 1.08 and 1.011 and 0.9454 and 0.9651
  Organic cation transporter 3 expression: 0.8883 and 1.096 and 1.263
  Ornithine decarboxylase expression: 0.8334 and 1.039 and 1.055 and 1.097 and 1.469
  Osteoactivin expression: 1.459 and 1.435 and 0.9157 and 0.9271 and 1.449
  Paraoxonase 1 expression: 0.7398 and 0.6886 and 1.221 and 1.224
  Phase-1 RCT-24 expression: 0.8968
  Phase-1 RCT-39 expression: 1.47 and 0.9339 and 0.9947
  Phase-1 RCT-43 expression: 0.9905 and 0.9704 and 0.9375
  Phase-1 RCT-57 expression: 0.8991 and 0.6888
  Phase-1 RCT-78 expression: 0.8505 and 0.8237
  Phase-1 RCT-81 expression: 1.102
  Phase-1 RCT-107 expression: 0.9169 and 0.6899
  Phase-1 RCT-109 expression: 0.6916
  Phase-1 RCT-117 expression: 0.9421 and 0.9667
  Phase-1 RCT-138 expression: 0.9832
  Phase-1 RCT-144 expression: 0.8629
  Phase-1 RCT-146 expression: 0.9994
  Phase-1 RCT-149 expression: 1.1 and 0.8836
  Phase-1 RCT-154 expression: 0.8651 and 0.9418 and 0.9917
  Phase-1 RCT-156 expression: 1.103
  Phase-1 RCT-164 expression: 0.9378 and 0.8318 and 0.9484
  Phase-1 RCT-173 expression: 0.7045 and 0.5898
  Phase-1 RCT-174 expression: 0.7203 and 0.6816
  Phase-1 RCT-179 expression: 1.2 and 0.9105 and 1.544
  Phase-1 RCT-192 expression: 0.999
  Phase-1 RCT-207 expression: 0.9742
  Phase-1 RCT-211 expression: 0.8217 and 0.6431
  Phase-1 RCT-213 expression: 0.8004
  Phase-1 RCT-227 expression: 0.8538
  Phase-1 RCT-260 expression: 0.974 and 0.93
  Phase-1 RCT-290 expression: 0.5411 and 0.6526
  Poly(ADP-ribose) polymerase expression: 0.8263 and 1.077 and 0.8901 and 0.8489 and 1.291
  Pyruvate kinase, muscle expression: 1.141 and 1.584 and 1.146 and 1.081 and 0.8598
  Ribosomal protein L13A expression: 1.178 and 0.9908 and 0.8711
  Ribosomal protein S8 expression: 1.069 and 1.043 and 1.983 and 1.441
  Ribosomal protein S17 expression: 0.9563 and 0.9932 and 1.772 and 1.494
  Stathmin expression: 0.8925 and 1.067 and 1.025 and 0.9726 and 0.8514
  Thioredoxin-1 (Trx1) expression: 0.9876 and 1.146 and 1.089 and 0.8216 and 0.7283
  Thymosin beta-10 expression: 0.8732 and 1.234 and 1.068 and 0.8379
  Tissue plasminogen activator expression: 0.8347 and 0.7599 and 0.9719 and 1.009 and 1.011
  Transitional endoplasmic reticulum ATPase expression: 0.9168 and 0.8359 and 1.015 and 0.9607 and 1.436
  Ubiquitin conjugating enzyme (RAD 6 homologue) expression: 0.9338 and 0.984 and 0.8685 and 0.6936 and 1.384
  Uncoupling protein 2 expression: 1.105 and 1.472 and 1.007 and 0.9206
  Zinc finger protein expression: 0.8577 and 1.115 and 0.9673 and 0.8957 and 1.145
  p55CDC expression: 1.198 and 1.343 and 1.163 and 1.148 and 0.9509
  {Phase-1 RCT 98} expression: 0.8993 and 0.665 and 1.028 and 1.025
  {Ribosomal protein 16} expression: 1.136 and 1.255 and 1.519
